Results as given in patent publication US6713506B2, “Tea polyphenol esters and analogs thereof for cancer prevention and treatment” (University of South Florida, priority 2000, dated 2004).
Non-standard residues stand in square brackets, D forms with d. Residues, ends and D or L forms follow the SMILES beside them. *: point of attachment. Nle = CCCC[C@H](N)C(=O)O; Nva = CCC[C@H](N)C(=O)O; Cbz = O=C(OCc1ccccc1)*

Experiments:
[1] = target: chymotrypsin-like activity of purified 20S proteasome (UniProt Q9P992); assay type: biochemical; settings: for IC50: read-out: IC50 towards the chymotrypsin-like activity of purified 20S proteasome
Sequence of chymotrypsin-like activity of purified 20S proteasome (UniProt Q9P992) (Q9P992 whole entry): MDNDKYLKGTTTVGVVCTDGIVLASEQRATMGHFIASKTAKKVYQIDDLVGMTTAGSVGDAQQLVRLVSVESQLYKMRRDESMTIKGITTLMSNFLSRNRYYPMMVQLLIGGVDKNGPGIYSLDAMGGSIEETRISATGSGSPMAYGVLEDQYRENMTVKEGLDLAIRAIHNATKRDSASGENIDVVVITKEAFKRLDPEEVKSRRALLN
Experimental: (§1) FIG. 8. […] A). […] Initially, 0.5 μg of purified 20S proteasome is incubated with 20 μM of a fluorogenic peptide substrate, Suc-Leu-Leu-Val-Tyr-AMC, for 30 min at 37° C. in 100 μl of assay buffer (20 mM Tris-HCl, pH 8.0) with various concentrations of tannic acid. After incubation, the reaction mixture is diluted to 200 μl with the assay buffer, followed by measurement of the hydrolyzed 7-amido-4-methyl-coumarin (AMC) groups using a fluorometer with an excitation filter of 380 nm and an emission filter of 460 nm. B). […] Tannic acid (0.3 μg/ml) and Glucose (180 μg/ml) are used in the proteasome activity assay as described above. C). […] Purified calpain I (3 μg) protein is incubated with 40 μM of a fluorogenic peptide substrate, Suc-Leu-Tyr-AMC, for 30 min at 37° C. in 100 μl of assay buffer (50 mM Tris-HCl, pH 7.5, containing 50 mM NaCl, 1 mM EDTA, 1 mM EGTA, 5 mM β-Mercaptoethanol, 5 mM CaCl2, and 0.1% CHAPS) in the absence (control) or presence of 5 μg/ml of tannic acid or 0.18 μg/ml of calpeptin (calpain inhibitor).
(§2) Inhibition of the proteasome activity in vitro by tea polyphenols—To measure the 20S proteasome chymotrypsin-like activity, 0.5 μg of a purified 20S proteasome (Calbiochem) is incubated with 20 μM of a fluorogenic peptide substrate, Suc-Leu-Leu-Val-Tyr-AMC (Calbiochem), for 30 min at 37° C. in 100 μl of assay buffer (20 mM Tris-HCl, pH 8.0), with or without tea polyphenols (purity >95%; Sigma) or tea extract. After incubation, the reaction mixture is diluted to 200 μl with the assay buffer, followed by measurement of the hydrolyzed 7-amido-4-methyl-coumarin (AMC) groups using a VersaFluor™ Fluorometer with an excitation filter of 380 nm and an emission filter of 460 nm (Bio-Rad).

purified calpain I = target: T1, purified calpain I (Homo sapiens, UniProt P07384); test: Calpain I activity assay; assay type: biochemical; settings: FIG. 3B: EGCG 10 μM, calpeptin 1 μM
T1 construct: 3 μg purified calpain I (Human Erythrocytes, Calbiochem) is incubated; purchased Calbiochem; host or cells: human erythrocytes (tissue-purified)
T1 sequence (P07384 1-714): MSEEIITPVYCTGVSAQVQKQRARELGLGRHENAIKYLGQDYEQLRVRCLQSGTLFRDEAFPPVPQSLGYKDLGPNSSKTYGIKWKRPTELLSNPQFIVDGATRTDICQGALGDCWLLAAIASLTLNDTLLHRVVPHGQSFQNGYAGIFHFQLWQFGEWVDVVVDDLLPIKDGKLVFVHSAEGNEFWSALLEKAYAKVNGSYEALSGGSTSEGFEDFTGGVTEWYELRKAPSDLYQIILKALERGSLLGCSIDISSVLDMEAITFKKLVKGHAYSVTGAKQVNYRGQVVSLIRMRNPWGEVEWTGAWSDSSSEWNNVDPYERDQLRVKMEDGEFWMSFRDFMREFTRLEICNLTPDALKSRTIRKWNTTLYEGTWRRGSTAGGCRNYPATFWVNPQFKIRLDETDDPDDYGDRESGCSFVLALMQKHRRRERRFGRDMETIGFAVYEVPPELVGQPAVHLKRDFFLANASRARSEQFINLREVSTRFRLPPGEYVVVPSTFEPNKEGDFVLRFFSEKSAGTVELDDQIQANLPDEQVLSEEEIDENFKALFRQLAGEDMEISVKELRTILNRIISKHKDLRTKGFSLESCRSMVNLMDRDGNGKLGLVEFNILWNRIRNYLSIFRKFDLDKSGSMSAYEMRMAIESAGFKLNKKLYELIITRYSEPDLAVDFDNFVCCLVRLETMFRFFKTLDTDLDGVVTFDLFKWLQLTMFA
T1 sequence (P04632 1-268 partner): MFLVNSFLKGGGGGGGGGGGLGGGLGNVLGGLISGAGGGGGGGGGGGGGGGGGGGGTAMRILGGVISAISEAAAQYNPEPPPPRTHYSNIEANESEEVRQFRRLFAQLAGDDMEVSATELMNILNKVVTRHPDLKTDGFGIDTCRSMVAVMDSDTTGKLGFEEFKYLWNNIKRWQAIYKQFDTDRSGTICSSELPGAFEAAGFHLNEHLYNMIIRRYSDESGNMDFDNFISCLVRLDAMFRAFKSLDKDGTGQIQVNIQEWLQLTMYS
Experimental: as §1

[2] = target: T2, proteasome chymotrypsin-like activity in living Jurkat cells (Homo sapiens, UniProt P28074); test: Proteasome chymotrypsin-like activity in living Jurkat T cells; assay type: cell-based; settings: 10 μM, living Jurkat cells
T2 construct: endogenous in cells; host or cells: Jurkat T cells (whole cell extract or intact cells)
Experimental: FIG. 10. Inhibition of the chymotrypsin-like activity by tannic acid in intact Jurkat T cells. Intact Jurkat T cells (1×10^5 cells/ml/well) are cultured in 24-well plates. These cells are first incubated for 12 h with various concentrations of tannic acid as indicated, followed by an additional 2 h-incubation with a fluorogenic peptide substrate, Suc-Leu-Leu-Val-Tyr-AMC for the chymotrypsin-like activity. Then, cell medium (200 μl per sample) is collected and used for measurement of free AMCs.
Inhibition of the proteasome activity in living cells by tea polyphenols—To measure inhibition of the chymotrypsin-like activity in living tumor cells, Jurkat T (1×10^5 cells/ml/well), MCF7 or PC-3 cells (1×10^4 cells/ml/well) are cultured in 24-well plates. These cells are first incubated for 12 h with various concentrations of EGCG, EGC, β-lactone or LLnL, followed by an additional 2 h-incubation with fluorogenic peptide substrates, Suc-Leu-Leu-Val-Tyr-AMC for the chymotrypsin-like activity and Z-Gly-Gly-Arg-AMC for the trypsin-like activity. After that, cell medium (200 μl per sample) is collected and used for measurement of free AMCs.

[3] = target: T3, proteasome activity in MCF-7 cells (Homo sapiens, UniProt P28072+P28074+Q99436); test: Proteasome activity in lysate of pretreated MCF-7 cells; assay type: cell-based; settings: MCF-7 cells pretreated with inhibitor
T3 construct: endogenous in cells; host or cells: MCF-7 cells, pretreated and then lysed
T3 sequence (P28074 60-263): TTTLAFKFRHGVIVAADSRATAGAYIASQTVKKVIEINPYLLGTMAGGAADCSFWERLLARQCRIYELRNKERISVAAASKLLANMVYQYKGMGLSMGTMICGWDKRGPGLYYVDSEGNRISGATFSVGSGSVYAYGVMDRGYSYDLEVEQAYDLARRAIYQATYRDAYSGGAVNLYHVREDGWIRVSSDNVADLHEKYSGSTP
T3 sequence (P28072 1-239): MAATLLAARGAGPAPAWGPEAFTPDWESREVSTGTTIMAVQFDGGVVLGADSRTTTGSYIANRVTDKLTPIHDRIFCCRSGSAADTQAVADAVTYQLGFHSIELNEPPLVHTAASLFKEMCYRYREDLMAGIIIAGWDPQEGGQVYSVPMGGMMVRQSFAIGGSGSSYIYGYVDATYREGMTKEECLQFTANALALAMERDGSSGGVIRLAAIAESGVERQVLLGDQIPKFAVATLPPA
T3 sequence (Q99436 44-277): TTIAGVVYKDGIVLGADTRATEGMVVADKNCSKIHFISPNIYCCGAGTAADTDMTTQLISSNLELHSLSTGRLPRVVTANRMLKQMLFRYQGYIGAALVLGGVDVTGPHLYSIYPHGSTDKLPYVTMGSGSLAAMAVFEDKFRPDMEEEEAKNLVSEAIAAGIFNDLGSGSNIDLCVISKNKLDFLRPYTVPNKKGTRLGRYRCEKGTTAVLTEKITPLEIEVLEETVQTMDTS
Experimental: (a) The selected cell lines are treated with EGCG (vs. EGC) or ECG (vs. EC) at various concentrations (0-80 μM) for up to 96 h, followed by preparation of protein extracts and measurement of the proteasomal chymotrypsin-like, trypsin-like and PGPH activities and the calpain activity in cell-free assay. […] Thus, a protein extract of breast cancer cells pretreated with EGCG also contains decreased levels of the proteasome activity.

[4] = target: chymotrypsin-like activity of purified 20S proteasome; assay type: biochemical; settings: read-out: IC50 towards the chymotrypsin-like activity of purified 20S proteasome
Sequence of chymotrypsin-like activity of purified 20S proteasome (Q9P992 whole entry): as the sequence (Q9P992 whole entry) above
Experimental: as §1, §2

[5] = target: T4, caspase-3-like activity in Jurkat T cell extract (Homo sapiens, UniProt P42574); test: Caspase-3 activity assay in Jurkat T cell extract; assay type: biochemical
T4 construct: endogenous in cells; host or cells: Jurkat T cell whole cell extract
T4 sequence (P42574 29-175 limits assumed): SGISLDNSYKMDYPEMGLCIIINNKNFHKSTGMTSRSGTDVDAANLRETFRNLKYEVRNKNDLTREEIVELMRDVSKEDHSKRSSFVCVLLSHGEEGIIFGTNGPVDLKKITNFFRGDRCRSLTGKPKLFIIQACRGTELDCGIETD
T4 sequence (P42574 176-277 limits assumed): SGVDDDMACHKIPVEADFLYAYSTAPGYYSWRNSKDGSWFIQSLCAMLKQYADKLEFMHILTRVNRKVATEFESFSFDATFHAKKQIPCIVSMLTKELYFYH
Experimental: Calpain I and Caspase-3 activities assays with tea polyphenols—To measure calpain I activity, 3 μg purified calpain I (Human Erythrocytes, Calbiochem) is incubated with 40 μM of a fluorogenic peptide substrate, Suc-Leu-Tyr-AMC (Calbiochem), for 30 min at 37° C. in 100 μl of assay buffer (50 mM Tris-HCl, pH 7.5, containing 50 mM NaCl, 1 mM EDTA, 1 mM EGTA, 5 mM β-Mercaptoethanol, 5 mM CaCl2, and 0.1% CHAPS), with or without EGCG. After incubation, the reaction mixture is diluted to 200 μl with the assay buffer, and the hydrolyzed AMCs are quantified as described above. For caspase-3 activity assay, the whole cell extract (3.5 μg) from Jurkat T cells is incubated for 90 min at 37° C. with 20 μM of a fluorogenic peptide substrate, Ac-Asp-Glu-Val-Asp-AMC. These procedures were similar to those of the proteasome assay with cell free extracts described above.

Compound: Oc1cc(O)c2c(c1)OC(c1ccc(O)c(O)c1)C(O)C2 (single isomer, unassigned; (-)) [C, (−)-catechin]
- inhibition of purified 20S proteasome chymotrypsin-like activity (in words) [1]: do not inhibit the proteasome activity

Compound: CCCC[C@@H](C=O)NC(=O)[C@H](CC(C)C)NC(=O)OCc1ccccc1 [Calpeptin, calpeptin, reference compound]
- inhibition of purified calpain activity (in words) (purified calpain I): able to inhibit

Compound: Oc1cc(O)c2c(c1)O[C@H](c1cc(O)c(O)c(O)c1)[C@@H](O)C2 [GC, (−)-gallocatechin]
- inhibition of purified 20S proteasome chymotrypsin-like activity (in words) [1]: do not inhibit the proteasome activity

Compound: CCCC[C@@H](C=O)NC(=O)[C@H](CC(C)C)NC(=O)[C@H](CC(C)C)NC(C)=O [LLnL, reference compound] (Ac-Leu-Leu-[Nle]-aldehyde)
- inhibition of chymotrypsin-like activity [2]: 40%

Compound: CCC[C@@H](C=O)NC(=O)[C@H](CC(C)C)NC(=O)[C@H](CC(C)C)NC(=O)OCc1ccccc1 [LLnV] (Cbz-Leu-Leu-[Nva]-aldehyde)
- proteasome activity in lysate of pretreated cells [3]: decreased levels of proteasome activity

Compound: O=C(O)c1cc(O)c(O)c(O)c1 [gallic acid, reference compound]
- IC50 [4]: 7100 µM
- fold less potent than EGCG ([1]; ratio of IC50 to EGCG): 83,000 fold

Compound: COC(=O)c1cc(O)c(O)c(O)c1 [methyl gallate, reference compound]
- inhibition of purified 20S proteasome chymotrypsin-like activity (in words) [1]: more potent than gallate

Compound: CC(C)[C@H](O)[C@@]12NC(=O)[C@H](C)[C@@H]1OC2=O [β-lactone, clastolactacystin β-lactone, reference compound]
- IC50 [1]: 0.6 µM
- inhibition of chymotrypsin-like activity [2]: 20%

Compound: (−)-catechin-3-gallate [CG]
- IC50 [1]: 0.124 µM

Compound: (−)-epicatechin-3-gallate [ECG]
- IC50 [1]: 0.194 µM

Compound: (−)-gallocatechin-3-gallate [GCG]
- IC50 [1]: 0.187 µM

Compound: Ac-DEVD-CMK [reference compound]
- inhibition of caspase-3-like activity (in words) [5]: blocked
